# In US20020019372A1 (priority 2000, published 2002):
# Tests used:
# [1] = test system: renal proximal tubular cells; assay: Ouabain-sensitive QO2 as marker of active Na+ transport; format: cell-based, rabbit
# Method: Rabbit renal proximal tubules were isolated by iron oxide perfusion method and grown in 35 mm culture dishes in improved conditions as described previously (Nowak and Schnellmann, 1996). The purity of the renal proximal tubular S1 and S2 segments isolated by this method is approximately 96%. The culture medium was a 50:50 mixture of Dulbecco's modified Eagle's essential medium (DMEM) and Ham's F-12 nutrient mix without phenol red, pyruvate, and glucose, supplemented with 15 mM NaHCO3, 15 mM N-2hydroxyethylpiperazine-N′-2-ethanesulfonic acid, and 6 mM lactate (pH7.4, 295 mosmol/kg). Human transferrin (5 μg/ml), selenium (5 ng/ml), hydrocortisone (50 nM), bovine insulin (10 nM), and L-ascorbic acid-2-phosphate (0.05 mM or 0.5 mM) were added to the medium immediately before daily media change (2 ml/ dish). […]
# (§1) Washed renal proximal tubular cells monolayers were gently detached from the dishes with a rubber policeman, suspended in 37° C. culture medium and transferred to the oxygen consumption (QO2) measurement chamber. QO2 was measured polarographically using Clark type electrode as described previously (Nowak and Schnellmann, 1996; Nowak et al., 1998; Nowak et al., 1999). Ouabain-insensitive QO2 was measured in the presence of 0.1 mM ouabain and was calculated as a difference between basal and ouabain-insensitive QO2.
# [2] = test system: renal proximal tubular cells; assay: Basal oxygen consumption (QO2) as marker of mitochondrial function; format: cell-based, rabbit
# Method: (§2) Rabbit renal proximal tubules were isolated by iron oxide perfusion method and grown in 35 mm culture dishes in improved conditions as described previously (Nowak and Schnellmann, 1996). The purity of the renal proximal tubular S1 and S2 segments isolated by this method is approximately 96%. The culture medium was a 50:50 mixture of Dulbecco's modified Eagle's essential medium (DMEM) and Ham's F-12 nutrient mix without phenol red, pyruvate, and glucose, supplemented with 15 mM NaHCO3, 15 mM N-2hydroxyethylpiperazine-N′-2-ethanesulfonic acid, and 6 mM lactate (pH7.4, 295 mosmol/kg). Human transferrin (5 μg/ml), selenium (5 ng/ml), hydrocortisone (50 nM), bovine insulin (10 nM), and L-ascorbic acid-2-phosphate (0.05 mM or 0.5 mM) were added to the medium immediately before daily media change (2 ml/ dish).
# (§3) Renal proximal tubular cells monolayers reached confluence within 5 days and were treated with dichlorovinyl-L-cysteine (0.2 mM, 100 min) on day 6 of culture. Following dichlorovinyl-L-cysteine exposure, the remaining monolayer was washed with fresh medium and cultured for 4 days. Samples of renal proximal tubular cells were taken at various time points after dichlorovinyl-L-cysteine exposure for measurements of cellular functions. Prior to measurement of any functions, renal proximal tubular cells were washed with ice cold phosphate buffered saline (pH 7.4) or 37° C. culture media (for measurement of oxygen consumption, QO2) to remove non-viable cells.
# as §1
# [3] = test system: renal proximal tubular cells; assay: Monolayer DNA content as marker of renal proximal tubular cell proliferation after DCVC injury; format: cell-based, rabbit
# Method: as §2, §3
# Monolayer DNA content was used as a marker of renal proximal tubular cells proliferation. Monolayers were solubilized in 0.05 M Tris-HCl (pH 7.4) containing 0.15 M NaCl and 0.05% Triton X-100 and DNA determined in cell lysates by the method of Labarca and Paigen (1980) as described previously (Nowak and Schnellmann, 1996). Protein was measured by the method of Lowry et al. (1951).
# [4] = test system: α1 subunit of Na^+-K^+-ATPase; assay: Immunocytochemical localization of Na+-K+-ATPase (confocal laser scanning microscopy); format: cell-based, rabbit; conditions: for effect on Na+-K+-ATPase protein of the plasma membrane: DCVC 0.2 mM, independent of AscP concentration
# Method: as §2, §3
# At various time points following dichlorovinyl-L-cysteine exposure, control and DCVC-treated renal proximal tubular cells monolayers were washed 3 times with ice-cold PBS and fixed in 3.7% formaldehyde. Following permeabilization with 100% methanol for 10 min at −20° C., renal proximal tubular cells monolayers were washed with PBS containing 0.1% BSA and 0.3% Triton X-100 (PBS/0.1% BSA/0.3% Triton X-100) for 15 min at room temperature. Blocking of non-specific binding was performed for 30 min in PBS containing 8% BSA. […]
# [5] = test system: renal proximal tubular cells; assay: Ouabain-insensitive oxygen consumption (QO2); format: cell-based, rabbit; conditions: for decrease of ouabain-insensitive QO2: 24 hr after DCVC
# Method: as §2, §3, §1
# [6] = test system: renal proximal tubular cells; conditions: Nowak et al., 1999, cited from earlier work
# [7] = DCVC-injured RPTC, 0.5 mM AscP, day 4
compound,measurement,setting,value
"O=C1O[C@H]([C@@H](O)CO)C(O)=C1OP(=O)([O-])[O-].[Mg+2] [L-ascorbic acid phosphate, L-Ascorbic acid-2-phosphate magnesium salt]",time of return of active Na+ transport to control levels,"[1]; DCVC-injured RPTC, pharmacological concentrations of AscP (discussion)",occurred on day 4
same,"ouabain-sensitive QO2 in control RPTC, 0.05 vs 0.5 mM",[1]; control RPTC without DCVC,equivalent
same,"basal QO2 in control RPTC, 0.05 vs 0.5 mM",[2]; control RPTC without DCVC,equivalent
same,proliferation and recovery of physiological functions and basolateral Na+-K+-ATPase expression,"[3]; DCVC-injured RPTC, 0.5 mM AscP, by day 4 (summary)","proliferated, recovered all examined physiological functions and the basolateral membrane expression of Na^+-K^+-ATPase by day 4"
same,increase of monolayer DNA content,"[3]; DCVC-injured RPTC, 0.5 mM AscP, day 2",1.6 fold
same,increase of monolayer DNA content,[3]; [7],2.3 fold
same,monolayer DNA content relative to controls,[3]; [7],81 % of controls
same,"monolayer DNA content in control RPTC, 0.05 vs 0.5 mM",[3]; control RPTC without DCVC,equivalent
same,"basolateral Na+-K+-ATPase protein levels and distribution in control RPTC, physiological vs pharmacological concentration",[4]; control RPTC without DCVC,no difference
same,remaining decrease of ouabain-insensitive QO2,"[5]; DCVC-injured RPTC, through day 4, 0.05 mM AscP",45%
same,ouabain-insensitive QO2,"[5]; control RPTC without DCVC, 0.05 mM AscP",9.7±1.6 nmol O2/min/mg protein
same,ouabain-insensitive QO2,"[5]; control RPTC without DCVC, 0.5 mM AscP",12.9±1.5 nmol O2/min/mg protein
"EGF: epidermal growth factor, 10 ng/ml daily treatments",effect on inhibition of RPTC regeneration after DCVC-induced injury,"[6]; daily treatments, 10 ng/ml",can be overcome
"N[C@@H](CSC(Cl)=CCl)C(=O)O [dichlorovinyl-L-cysteine, S-(1,2dichlorovinyl)-L-cysteine]",decrease of basal QO2,"[2]; 24 hr after DCVC, RPTC grown in 0.05 mM AscP",59%
same,decrease in mitochondrial function,"[2]; DCVC 0.2 mM, 100 min, independent of AscP concentration",54%
same,decrease of basal QO2,"[2]; after DCVC, RPTC grown in 0.5 mM AscP",62%
same,renal proximal tubular cells death and loss from the monolayer,"[3]; 24 hr after DCVC 0.2 mM, 100 min, independent of AscP 0.05 or 0.5 mM",60%
same,loss of monolayer DNA,"[3]; 24 hr after DCVC 0.2 mM, 100 min, regardless of AscP 0.05 or 0.5 mM",61%
same,effect on Na+-K+-ATPase protein of the plasma membrane,[4],loss of Na^+-K^+-ATPase protein from the basolateral membrane
same,effect on Na+-K+-ATPase protein of the plasma membrane,[4]; listed as DCVC,loss of the Na^+-K^+-ATPase protein from the basolateral domain
same,cell death and loss from the monolayer,[6]; earlier study,30%
same,decrease of ouabain-insensitive QO2,[5]; 0.05 mM AscP,32%
same,decrease of ouabain-insensitive QO2,[5]; 0.5 mM AscP,50%
same,ouabain-insensitive QO2,"[5]; DCVC-treated RPTC, 24 hr, 0.05 mM AscP",6.6±2.6 nmol O2/min/mg protein
same,ouabain-insensitive QO2,"[5]; DCVC-treated RPTC, 24 hr, 0.5 mM AscP",6.5±1.0 nmol O2/min/mg protein
